According to article PMC12040169 (PLOS Biology, 2025):

assay: in vitro; settings: human, hela cells, % viability

Question: Which viability at 28.5 h, 10 µM does the source give for `COc1ccc(CCN2C(=O)c3[nH]nc(-c4cc(C)c(C)cc4O)c3C2c2ccccc2)cc1` (stereo not shown) [CBK269154] here?
Answer: 106%

Question: Which viability at 28.5 h, 10 µM does the source give for `O=C(CSCc1c(F)cccc1Cl)NCc1ccccc1Cl` [CBK269155] here?
Answer: 91.6%

Question: With `O=C(Nc1ccc(Cc2ccncc2)cc1)c1cc([N+](=O)[O-])n[nH]1` [CBK269157] as the compound, how does the viability at 28.5 h, 10 µM read?
Answer: 99.4%

Question: For `COc1cc(CNC2CCCCC2)cc(I)c1OCC(N)=O` [CBK269158C], which viability at 28.5 h, 10 µM is on record?
Answer: 117%

Question: For `CCS(=O)(=O)Nc1ccc(C2=NN(S(=O)(=O)c3ccc(F)cc3)C(c3ccccc3C)C2)cc1` (stereo not shown) [CBK269161], which viability at 28.5 h, 10 µM is on record?
Answer: 103%

Question: With `COc1ccccc1N1CCN(CC(=O)NC2CC3CCC2C3)CC1` (stereo not shown) [CBK269162] as the compound, how does the viability at 28.5 h, 10 µM read?
Answer: 94.8%

Question: For `Cc1nc2sc3c(c2c2nc(CCC(=O)O)nn12)CC(C)(C)OC3` [CBK269168], which viability at 28.5 h, 10 µM is on record?
Answer: 81.4%

Question: For `Cc1cc(C)c2c(CC(=O)NNC(=O)COc3ccccc3)coc2c1` [CBK269169], which viability at 28.5 h, 10 µM is on record?
Answer: 94.1%

Question: For `O=S(=O)(Cc1ccccc1Cl)NCCN1CCOCC1` [CBK269171], which viability at 28.5 h, 10 µM is on record?
Answer: 102%

Question: For `Cc1ccccc1C(=O)NCCCNC(=O)c1ccccn1` [CBK269172], which viability at 28.5 h, 10 µM is on record?
Answer: 96.7%

Question: For `CC(=O)N1CCc2c(sc3nc(N)c(C(=O)NCCc4ccc(F)cc4)c(C(F)(F)F)c23)C1` [CBK269176], which viability at 28.5 h, 10 µM is on record?
Answer: 94.4%

Question: Which viability at 28.5 h, 10 µM does the source give for `COc1ccc(OCC(=O)Nc2ccccc2N2CCN(S(C)(=O)=O)CC2)cc1` [CBK269177] here?
Answer: 89.9%

Question: With `Cc1cccc2cc(CN(Cc3ccco3)C(=O)C3CCCCC3)c(O)nc12` [CBK269178] as the compound, how does the viability at 28.5 h, 10 µM read?
Answer: 102%

Question: For `Cc1ccc(C(=O)O)cc1NC(=O)c1ncn(-c2ccccc2)n1` [CBK269181], which viability at 28.5 h, 10 µM is on record?
Answer: 114%

Question: For `CC(=O)c1ccc(NC(=O)CSc2nnc(-c3ccncc3)s2)cc1` [CBK269183], which viability at 28.5 h, 10 µM is on record?
Answer: 85.1%

Question: For `CC1CCCCN1Cc1nc2c(c(=O)n(C)c(=O)n2C)n1Cc1ccc(Br)cc1` (stereo not shown) [CBK269184], which viability at 28.5 h, 10 µM is on record?
Answer: 95.3%

Question: With `COc1cc(S(=O)(=O)NCCCn2ccnc2)ccc1Cl` [CBK269186] as the compound, how does the viability at 28.5 h, 10 µM read?
Answer: 89.1%

Question: For `Cc1ccc(C(=O)C2=C(O)C(=O)N(CCCN3CCOCC3)C2c2ccccn2)o1` (stereo not shown) [CBK269187], which viability at 28.5 h, 10 µM is on record?
Answer: 89.7%

Question: Which viability at 28.5 h, 10 µM does the source give for `COc1ccc(NC(=O)CN2CCN(c3ccccc3OC)CC2)c([N+](=O)[O-])c1` [CBK269188] here?
Answer: 94.7%

Question: For `Cn1c(=O)c2c(nc(CN3CCOCC3)n2CC(=O)c2ccccc2)n(C)c1=O` [CBK269195], which viability at 28.5 h, 10 µM is on record?
Answer: 93.2%

Question: For `O=C(NCC(O)c1ccccc1)c1ccc(Cl)c(S(=O)(=O)N2CCCCC2)c1` (stereo not shown) [CBK269197], which viability at 28.5 h, 10 µM is on record?
Answer: 81%

Question: Which viability at 28.5 h, 10 µM does the source give for `Cc1ccccc1Cn1c(CN2CCCCC2C)nc2c1c(=O)n(C)c(=O)n2C` (stereo not shown) [CBK269199] here?
Answer: 91.2%

Question: With `CC(SCC(=O)Nc1ccc(F)cc1)c1nc2ccccc2c(=O)[nH]1` (stereo not shown) [CBK269200] as the compound, how does the viability at 28.5 h, 10 µM read?
Answer: 105%

Question: With `O=C1NC2CCCCC2NC1CC(=O)N1CCN(C(c2ccccc2)c2ccccc2)CC1` (stereo not shown) [CBK269201] as the compound, how does the viability at 28.5 h, 10 µM read?
Answer: 88.7%

Question: Which viability at 28.5 h, 10 µM does the source give for `Cn1c(=O)n(CCN2CCOCC2)c(=O)c2c1nc1n2CCN1c1ccc(Oc2ccccc2)cc1` [CBK269202] here?
Answer: 91.4%

Question: Which viability at 28.5 h, 10 µM does the source give for `CCOC(=O)CC(=O)COc1nc2cc3c(nc2o1)CCCC3` [CBK269204] here?
Answer: 89.8%

Question: With `CC(=O)c1ccc(NC(=O)CSc2nnc(-c3ccc4ccccc4n3)s2)cc1` [CBK269205] as the compound, how does the viability at 28.5 h, 10 µM read?
Answer: 97.6%

Question: Which viability at 28.5 h, 10 µM does the source give for `Cc1ccccc1CSCC(=O)NCCN1CCOCC1` [CBK269207] here?
Answer: 103%

Question: With `O=C(O)c1ccc(CSc2nnc(Cc3ccccc3)[nH]2)o1` [CBK269208] as the compound, how does the viability at 28.5 h, 10 µM read?
Answer: 99.3%

Question: For `N#Cc1cc(SCCC(=O)O)c(N2CCOCC2)cc1C#N` [CBK269212], which viability at 28.5 h, 10 µM is on record?
Answer: 96.3%

Question: For `CC(Sc1ccccc1)C(=O)NCCCN1CCOCC1` (stereo not shown) [CBK269214], which viability at 28.5 h, 10 µM is on record?
Answer: 106%

Question: For `Cc1ccc(OCCCSc2nnc(N)[nH]2)cc1` [CBK269215A], which viability at 28.5 h, 10 µM is on record?
Answer: 89.1%

Question: For `Nc1c(C(=O)NCC2CCCO2)c2nc3ccccc3nc2n1C1CCCC1` (stereo not shown) [CBK269217], which viability at 28.5 h, 10 µM is on record?
Answer: 112%

Question: With `Cc1ccccc1C(=O)NCCNC(=O)c1cccnc1` [CBK269222] as the compound, how does the viability at 28.5 h, 10 µM read?
Answer: 96.2%

Question: For `COc1ccc(OC)c(S(=O)(=O)N2CCCC(C(=O)O)C2)c1` (stereo not shown) [CBK269225], which viability at 28.5 h, 10 µM is on record?
Answer: 95%

Question: For `CCOc1ccc(-c2noc(CCC(=O)NC)n2)cc1OC` [CBK269226], which viability at 28.5 h, 10 µM is on record?
Answer: 86.4%

Question: Which viability at 28.5 h, 10 µM does the source give for `O=C(Cc1ccccc1)Nc1ccccc1C(=O)NCc1cccnc1` [CBK269228] here?
Answer: 96.1%

Question: Which viability at 28.5 h, 10 µM does the source give for `CC(Sc1nc(N(C)C)nc(N2CCOCC2)n1)C(=O)Nc1ccc(Cl)c(Cl)c1` (stereo not shown) [CBK269229] here?
Answer: 110%

Question: With `Cc1ccc2nsnc2c1NC(=O)CN1CCN(c2ccc(F)cc2)CC1` [CBK269231] as the compound, how does the viability at 28.5 h, 10 µM read?
Answer: 98.9%

Question: Which viability at 28.5 h, 10 µM does the source give for `Cn1c(=O)[nH]c(=O)c2c1nc(SCCN1CCOCC1)n2CCCc1ccccc1` [CBK269234] here?
Answer: 95.5%

Question: For `Cc1ccc2[nH]cc(CCNC(=O)c3cccc(NC(=O)c4ccccc4)c3)c2c1` [CBK269235], which viability at 28.5 h, 10 µM is on record?
Answer: 86.6%

Question: For `CCN1CCN(Cc2nc3c(c(=O)n(C)c(=O)n3C)n2Cc2c(F)cccc2Cl)CC1` [CBK269236], which viability at 28.5 h, 10 µM is on record?
Answer: 108%

Question: With `O=S(=O)(N1CCCCCC1)n1ccnc1` [CBK269241] as the compound, how does the viability at 28.5 h, 10 µM read?
Answer: 92.1%

Question: Which viability at 28.5 h, 10 µM does the source give for `CCOc1ccc(CN2CCNC(=O)C2CC(=O)O)cc1` (stereo not shown) [CBK269242] here?
Answer: 107%

Question: For `CCNc1nc2c(c(=O)[nH]c(=O)n2C)n1CCCc1ccccc1` [CBK269243], which viability at 28.5 h, 10 µM is on record?
Answer: 94.6%

Question: For `O=C(CCNS(=O)(=O)c1ccc(Cl)cc1)Nc1ccncc1` [CBK269244], which viability at 28.5 h, 10 µM is on record?
Answer: 99.4%

Question: For `O=C(O)c1ccc2c(c1)C(=O)N(CCCN1CCOCC1)C2=O` [CBK269245], which viability at 28.5 h, 10 µM is on record?
Answer: 102%

Question: For `O=C(CN1C(=O)c2ccccc2C1=O)Nc1ccccc1C(=O)N1CCN(c2ccccc2)CC1` [CBK269251], which viability at 28.5 h, 10 µM is on record?
Answer: 118%

Question: For `Cc1c(Cl)cccc1N1CCN(S(=O)(=O)CC23CCC(CC2=O)C3(C)C)CC1` (stereo not shown) [CBK269257], which viability at 28.5 h, 10 µM is on record?
Answer: 96.1%

Question: Which viability at 28.5 h, 10 µM does the source give for `NC1=C(c2ccccc2)C(=O)CN1NC(=O)COc1ccccc1-c1ccccc1` [CBK269258] here?
Answer: 95.1%

Question: Which viability at 28.5 h, 10 µM does the source give for `Cc1sc2nc(N)c(C(=O)NC(C)C)cc2c1C` [CBK269259] here?
Answer: 115%

Question: With `O=C(O)c1cccc(-n2c(S)nnc2-c2ccncc2)c1` [CBK269260] as the compound, how does the viability at 28.5 h, 10 µM read?
Answer: 105%

Question: For `CCN(CC)CCNC(=O)c1cc(O)nc2ccccc12` [CBK269261], which viability at 28.5 h, 10 µM is on record?
Answer: 99.6%

Question: For `O=C(O)COc1c(-c2ccco2)oc2ccccc2c1=O` [CBK269262], which viability at 28.5 h, 10 µM is on record?
Answer: 96.9%

Question: Which viability at 28.5 h, 10 µM does the source give for `CCN1CCN(C(=O)CN(Cc2ccc(Cl)cc2)S(C)(=O)=O)CC1` [CBK269263] here?
Answer: 82.8%

Question: With `O=C(O)CSc1nc2c(-c3ccco3)c3c(nc2o1)CCCC3` [CBK269266] as the compound, how does the viability at 28.5 h, 10 µM read?
Answer: 104%

Question: Which viability at 28.5 h, 10 µM does the source give for `Cc1ccc(NS(=O)(=O)c2cc(C(=O)N3CCN(C)CC3)ccc2C)cc1C` [CBK269268] here?
Answer: 91.2%

Question: Which viability at 28.5 h, 10 µM does the source give for `C/C=C/c1ccc(OCCCn2nnc3ccccc32)c(OC)c1` [CBK269271] here?
Answer: 86%

Question: For `Cc1nonc1NC(=O)CSc1nc2ccccc2[nH]1` [CBK269273], which viability at 28.5 h, 10 µM is on record?
Answer: 101%

Question: Which viability at 28.5 h, 10 µM does the source give for `COc1ccc(S(=O)(=O)NC(C)C(=O)NCc2ccccn2)cc1Cl` (stereo not shown) [CBK269275] here?
Answer: 101%

Question: For `Cn1c(=O)c2c(nc(CN3CCN(C(=O)c4ccco4)CC3)n2CCc2ccccc2)n(C)c1=O` [CBK269278], which viability at 28.5 h, 10 µM is on record?
Answer: 80.6%

Question: For `O=S(=O)(NN1CCOCC1)c1cc(Cl)cc(Cl)c1O` [CBK269279], which viability at 28.5 h, 10 µM is on record?
Answer: 89.8%

Question: With `O=C(NCc1ccccc1)c1ccccc1NC(=O)C1CCCCC1C(=O)O` (stereo not shown) [CBK269283] as the compound, how does the viability at 28.5 h, 10 µM read?
Answer: 92%

same assay, conditions: human, hela cells, % viability, bulk resorufin, single well

Question: With `O=C(O)CCCNC(=O)C(O)(c1ccccc1)c1ccccc1` [CBK269156] as the compound, how does the viability at 28.5 h, 10 µM read?
Answer: 95.5%
